# Test results as given in ChEMBL document CHEMBL1128974, “Design, synthesis and X-ray crystallographic studies of [7.3.1] and [8.3.1] macrocyclic FKBP-12 ligands” (Bioorg Med Chem Lett, 1996).
# Molecular target: T1, Peptidyl-prolyl cis-trans isomerase FKBP1A (Homo sapiens, UniProt P62942)
# Test: Compound was evaluated for inhibitory activity against human FKBP-12 rotamase; no inhibition; call rule not given here
# T1 sequence (P62942 whole entry): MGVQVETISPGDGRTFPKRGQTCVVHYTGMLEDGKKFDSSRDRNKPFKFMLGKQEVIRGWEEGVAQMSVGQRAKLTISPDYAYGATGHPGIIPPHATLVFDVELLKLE
row,Ki,Compound
1,Not Active,COCC(C)[C@@H]1CC[C@@H](C)[C@](O)(C(=O)C(=O)N2[C@@H]3CCC[C@H]2C(=O)OCC(COCc2ccccc2)COC3=O)C1 (stereo not given in full)
2,Not Active,CO[C@@H](CC(C)C)[C@@H]1CC[C@@H](C)[C@](O)(C(=O)C(=O)N2[C@@H]3CCC[C@H]2C(=O)OCC(CO)COC3=O)C1 (stereo not given in full)
3,Not Active,CO[C@@H](CC(C)C)[C@@H]1CC[C@@H](C)[C@](O)(C(=O)C(=O)N2[C@@H]3CCC[C@H]2C(=O)OCC(COCc2ccccc2)COC3=O)C1 (stereo not given in full)

# Molecular target: T1, Peptidyl-prolyl cis-trans isomerase FKBP1A
# Test: Compound was evaluated for inhibitory activity against human FKBP-12 rotamase
row,Ki [µM],Compound
1,0.28,COc1cc(C(=O)C(=O)N2[C@@H]3CCC[C@H]2C(=O)OCCCCOC3=O)cc(OC)c1OC
2,10,CCC(C)(C)C(=O)C(=O)N1[C@@H]2CCC[C@H]1C(=O)OCCCOC2=O
3,8.3,CCC(C)(C)C(=O)C(=O)N1[C@@H]2CCC[C@H]1C(=O)OCCCCOC2=O
4,8.1,CC(C)[C@@H]1CC[C@@H](C)[C@](O)(C(=O)C(=O)N2[C@@H]3CCC[C@H]2C(=O)OCCCOC3=O)C1
5,1.2,COc1cc(C(=O)C(=O)N2[C@@H]3CCC[C@H]2C(=O)OCC(COCc2ccccc2)COC3=O)cc(OC)c1OC (stereo not given in full)
6,> 50,COCC(C)[C@@H]1CC[C@@H](C)[C@](O)(C(=O)C(=O)N2[C@@H]3CCC[C@H]2C(=O)OCC(CO)COC3=O)C1 (stereo not given in full)
7,1.5,COc1cc(C(=O)C(=O)N2[C@@H]3CCC[C@H]2C(=O)OCC(CO[Si](C)(C)C(C)(C)C)COC3=O)cc(OC)c1OC (stereo not given in full)
